# Data taken from patent US11844795B2, “Combination therapy for cancer treatment” (Ipsen Biopharm Ltd., priority 2015, dated 2023).
# Legend:
# [1] = target: PARP 1 (Homo sapiens, UniProt P09874); conditions: cell-free assay; cited from earlier work
# [2] = system: PARP-DNA complexes; conditions: compared with veliparib; cited from earlier work
# [3] = system: HCC1806; assay: Cell survival (CellTiter-Glo) after SN-38 and/or PARP inhibitor; type: cell-based; conditions: Exp. 1, single agent
# Procedure: (§1) Cells were plated at 1000 cells/well and then incubated for 24 hours. […] The plates were then allowed to incubate for 72 hours period. After the 72 hour incubation period the media was removed and cell viability was determined using the CellTiter-Glo® cell viability assay (Promega, Madison Wis.) according to the product instructions.
# [4] = system: HCC38; assay: as above; type: cell-based; conditions: HCC38, Exp. 1, single agent
# Procedure: as §1
# [5] = system: BT20; assay: as above; type: cell-based; conditions: BT20, Exp. 1, single agent
# Procedure: as §1
# [6] = system: HCC1187; assay: as above; type: cell-based; conditions: HCC1187, Exp. 1, single agent
# Procedure: as §1
# [7] = system: SUM159PT; assay: as above; type: cell-based; conditions: SUM159PT, Exp. 1, single agent
# Procedure: as §1
# [8] = system: BT549; assay: as above; type: cell-based; conditions: BT549, Exp. 1, single agent
# Procedure: as §1
# [9] = target: SIRT2 (Homo sapiens, UniProt Q8IXJ6); conditions: cited from earlier work
# Chain of SIRT2 (Q8IXJ6 whole entry, species assumed): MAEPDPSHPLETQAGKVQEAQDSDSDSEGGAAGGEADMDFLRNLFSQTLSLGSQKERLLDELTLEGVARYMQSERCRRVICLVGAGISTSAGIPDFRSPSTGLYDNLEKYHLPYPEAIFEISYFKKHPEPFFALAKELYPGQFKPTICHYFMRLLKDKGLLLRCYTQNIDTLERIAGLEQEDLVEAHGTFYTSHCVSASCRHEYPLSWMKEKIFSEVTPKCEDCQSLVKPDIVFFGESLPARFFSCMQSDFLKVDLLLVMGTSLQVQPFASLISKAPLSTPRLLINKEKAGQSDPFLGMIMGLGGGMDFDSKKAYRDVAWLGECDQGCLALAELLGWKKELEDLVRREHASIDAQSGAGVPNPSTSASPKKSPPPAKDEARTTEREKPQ
# [10] = Estimated tumor range
# [11] = system: small cell lung cancer (SCLC), pancreatic cancer and breast cancer cell lines; assay: Growth inhibition, SN-38 with PARP inhibitors; type: cell-based
# [12] = system: C33A cervical cancer xenograft; assay: C33A cervical cancer xenograft model; conditions: MM-398 2 mg/kg weekly Day 1; veliparib 50 mg/kg orally Days 4-6; FIG. 7B
# [13] = system: PAR; conditions: Table 2B, unit inferred; cited from earlier work
# [14] = system: cancer cells; assay: Active range based on XTC008
# [15] = system: DMS-114 small cell lung cancer cells; assay: % cell number over time, SN-38 with PARP inhibitors; type: cell-based; conditions: SN-38 at 2 nM; DMS-114 SCLC cells
# [16] = system: MS751 cervical cancer xenograft; assay: MS751 cervical cancer xenograft model; conditions: MM-398 5 mg/kg weekly Day 1; veliparib 50 mg/kg orally Days 4-6; FIG. 7A
# [17] = system: CFPAC-1 pancreatic cancer cells; assay: % cell number over time, SN-38 with PARP inhibitors; type: cell-based; conditions: SN-38 at 2 nM
# [18] = Homo sapiens, read-out: IC50 log10 (converted)
# Chain of PARP 1 (P09874 whole entry, species assumed): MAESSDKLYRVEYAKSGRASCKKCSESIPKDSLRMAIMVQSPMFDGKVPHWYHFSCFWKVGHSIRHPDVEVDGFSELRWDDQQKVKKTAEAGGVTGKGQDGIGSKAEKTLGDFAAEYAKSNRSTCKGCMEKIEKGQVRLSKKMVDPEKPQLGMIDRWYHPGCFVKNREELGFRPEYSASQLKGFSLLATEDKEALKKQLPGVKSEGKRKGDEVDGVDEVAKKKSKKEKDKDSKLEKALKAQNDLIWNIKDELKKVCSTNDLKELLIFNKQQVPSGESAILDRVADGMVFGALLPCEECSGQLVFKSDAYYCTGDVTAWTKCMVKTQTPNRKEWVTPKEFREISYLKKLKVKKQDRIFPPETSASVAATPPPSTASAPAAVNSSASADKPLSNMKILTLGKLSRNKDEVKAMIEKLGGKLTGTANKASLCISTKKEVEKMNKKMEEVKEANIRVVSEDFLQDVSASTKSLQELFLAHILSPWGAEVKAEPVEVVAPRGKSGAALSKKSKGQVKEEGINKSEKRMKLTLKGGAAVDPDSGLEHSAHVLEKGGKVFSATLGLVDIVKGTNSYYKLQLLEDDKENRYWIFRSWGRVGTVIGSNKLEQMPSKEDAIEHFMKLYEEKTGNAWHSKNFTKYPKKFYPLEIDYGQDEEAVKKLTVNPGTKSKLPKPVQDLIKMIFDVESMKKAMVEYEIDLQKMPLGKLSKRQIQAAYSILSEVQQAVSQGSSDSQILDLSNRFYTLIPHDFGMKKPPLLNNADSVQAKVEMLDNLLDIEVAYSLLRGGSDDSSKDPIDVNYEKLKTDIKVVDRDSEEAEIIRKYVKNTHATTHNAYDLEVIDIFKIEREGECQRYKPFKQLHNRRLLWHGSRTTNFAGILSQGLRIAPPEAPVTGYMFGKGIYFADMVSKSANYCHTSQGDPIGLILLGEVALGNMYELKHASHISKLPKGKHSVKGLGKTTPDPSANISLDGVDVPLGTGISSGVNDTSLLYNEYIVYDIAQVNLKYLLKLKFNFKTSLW
structure (smiles),measurement,setting,value
CN(C)Cc1ccc(-c2nc3cccc4c3n2CCNC4=O)cc1 [AG-14361],Ki,[1],< 0.005 µM
NC(=O)c1cccc2cn(-c3ccc([C@@H]4CCCNC4)cc3)nc12 [Niraparib],potency at PARP trapping,[2],much more potent at PARP trapping than veliparib
same,Maximum Kill Percent,[3],100%
same,IC50,[3]; [18],18.6 µM
same,Maximum Kill Percent,[4],100%
same,IC50,[4]; [18],17 µM
same,Maximum Kill Percent,[5],100%
same,IC50,"[5]; Homo sapiens, BT-20, read-out: IC50 log10 (converted)",138 µM
same,Maximum Kill Percent,[6],98%
same,IC50,[6]; [18],129 µM
same,IC50,"[7]; Homo sapiens, SUM-159-PT, read-out: IC50 log10 (converted)",2.24 µM
same,Maximum Kill Percent,[7],97%
same,Maximum Kill Percent,[8],100%
same,IC50,"[8]; Homo sapiens, BT-549, read-out: IC50 log10 (converted)",107 µM
C[C@]1(c2nc3c(C(N)=O)cccc3[nH]2)CCCN1 [Veliparib],activity on SIRT2,[9],inactive
same,Estimated tumor range,[10],>2000 nM
same,growth inhibition of the cancer cells in combination with SN-38,[11]; 2 nM SN-38,additive/synergistic growth inhibition
same,potency in the combination with SN-38,[11]; compared with olaparib and rucaparib,slightly less potent in the combination with SN-38 than olaparib and rucaparib
same,efficacy (tumor growth),[12],neither MM-398 or veliparib were efficacious as single agents
same,EC50,[13],0.0059 µM
same,Active Range based on XTC008,[14],1000 to 10000 nM
same,effect of combination with SN-38,[15],Additive/synergistic effects
same,efficacy (tumor growth),[16],not efficacious
same,effect of combination with SN-38,[17],Additive/synergistic effects
